According to ChEMBL document CHEMBL1156829 (Proc Natl Acad Sci U S A, 2008):

Experiments:
Plasmodium falciparum [1] = test: NOVARTIS: Inhibition of Plasmodium falciparum 3D7 (drug-susceptible) proliferation in erythrocyte-based infection assay; format: functional, organism-based; settings: Plasmodium falciparum, 3D7
Plasmodium falciparum [2] = test: NOVARTIS: Inhibition of Plasmodium falciparum W2 (drug-resistant) proliferation in erythrocyte-based infection assay; format: functional, organism-based; settings: Plasmodium falciparum, W2; read-out: EC50
[3] = NOVARTIS: Cytotoxicity against human hepatocellular carcinoma cell line (Huh7); format: toxicity, cell-based, Huh-7; settings: Huh7 cells (hepatocellular carcinoma cell line)

| SMILES | EC50 (Plasmodium falciparum [1]) [nM] | EC50 (Plasmodium falciparum [2]) [nM] | CC50 [3] [nM] |
| --- | --- | --- | --- |
| COc1cc(C)c(CCNCCCCCCNCCc2cc(OC)c(OC)cc2C)cc1OC | 230 | > 880 | > 10000 |
| CC(C)CN1C(=O)c2ccccc2C(C(=O)Nc2ccc(C(C)C)cc2)C1c1cccs1 (stereo not given) | 2410 | 1200 | > 100000 |
| Cc1nn(C(=O)NS(=O)(=O)c2ccccc2Cl)c(C)c1C | > 810 | > 496 | > 10000 |
| CCOc1ccccc1NC(=O)CN1CCN(C(=O)c2ccco2)CC1 | 5460 | 12000 | > 100000 |
| COc1ccc2c(c1)c1c3n2CCN(Cc2ccccc2)C3=[N+](C)CC1 | 442 | 1340 | > 10000 |
| COc1cccc(OC)c1C(=O)Nc1cc(C(F)(F)F)ccc1Cl | > 1250 | 1810 | > 10000 |
| COc1cc(C(=O)N2N=C(c3c(-c4ccccc4)c4cc(Br)ccc4[nH]c3=O)CC2c2cccc([N+](=O)[O-])c2)cc(OC)c1OC (stereo not given) | 362 | 288 | > 100000 |
| COc1ccc(C2CC(=O)C3=C(C2)NC(C)=C(C(=O)OC2CCCC2)C3c2cccc(Cl)c2)cc1OC (stereo not given) | 201 | 75.8 | 16800 |
| CCCNC1=C(N(C(C)=O)c2cccc(F)c2)C(=O)c2ccccc2C1=O | 29 | 28.4 | 5390 |
| COc1ccc(NC(=O)N(CCCNS(=O)(=O)c2ccc([N+](=O)[O-])cc2)c2ccc(Oc3ccccc3)cc2)cc1 | 733 | 114 | > 7770 |
| CC(C)CNC(=O)c1cnc(NCCCN(C)C)nc1NCCc1ccccc1 | 983 | > 1250 | > 10000 |
| N=C(N)NN=Cc1cccc(OCc2ccc(Cl)c(Cl)c2)c1 | 1990 | 1690 | > 10000 |
| Clc1ccccc1CN1CCc2nc(N3CCCCC3)sc2C1 | 594 | 2630 | > 100000 |
| COC(=O)[C@@H]1C[C@@H](NC(=O)c2ccc(OC)cc2OC)CN1Cc1cccc2ccccc12 | 4690 | 1490 | > 100000 |
| Oc1ccc(-c2ccc3c(c2)OCO3)cc1CNCC1CC2C=CC1C21CC1 (stereo not given) | 1110 | 274 | > 100000 |
| Cc1nc(CC(=O)N2CCCC(CNC(=O)C3(c4ccc(Cl)cc4)CC3)C2)cs1 (stereo not given) | > 12500 | 5020 | > 100000 |
| Cc1c(C(=O)Nc2ccccc2)sc2ncn(Cc3ccccc3F)c(=O)c12 | > 875 | > 1480 | > 10000 |
| COc1ccc(C2CC(c3ccccc3Cl)n3ncnc3N2C(=O)C2CC2)cc1 (stereo not given) | 1320 | > 1280 | > 10000 |
| CCCCCc1ccc(-c2ccc(/C(C=[N+](C)C)=C\N(C)C)cc2)cc1 | 606 | 1050 | > 10000 |
| CCc1ccc(C(=O)Oc2ccccc2-c2nc3ccccn3c2NC(C)(C)CC(C)(C)C)cc1 | 1760 | 259 | > 10000 |
| CC1CCN(C(=O)C2CCCN(S(=O)(=O)c3ccc4[nH]c(-c5ccccc5)nc4c3)C2)CC1 (stereo not given) | > 12500 | 6030 | > 100000 |
| O=C(Nc1cc(Oc2ccc(F)cc2)cc([N+](=O)[O-])c1)c1nc2nc(-c3ccccc3)cc(C(F)(F)F)n2n1 | > 12500 | 3110 | > 100000 |
| CCC(=O)NCc1nnc(SCc2cccc(C(F)(F)F)c2)n1-c1cccc(OC)c1 | > 12500 | 5610 | > 100000 |
| CCOc1ccccc1C(=O)NC(Nc1sc2c(c1C(N)=O)CCCC2)(C(F)(F)F)C(F)(F)F | > 7500 | 2490 | > 100000 |
| CN(C)CCCNC1=NC=NC2C=C(Cl)C=CC12 (stereo not given) | 290 | 713 | > 100000 |

| SMILES | EC50 (Plasmodium falciparum [1]) [nM] | EC50 (Plasmodium falciparum [2]) [nM] | CC50 [3] [nM] |
| --- | --- | --- | --- |
| CCC(=O)NC(c1cccc([N+](=O)[O-])c1)c1ccc2cccnc2c1O (stereo not given) | 3420 | 2600 | > 100000 |
| CCn1c(SCCCCNC(=O)c2cc([N+](=O)[O-])cc([N+](=O)[O-])c2)nc(-c2ccccc2)c1-c1ccccc1 | 724 | 612 | 6520 |
| COc1ccc(S(=O)(=O)Nc2ccc(N3CCC(Cc4ccccc4)CC3)c(C(=O)NC(C)C)c2)cc1 | 2120 | 2430 | > 100000 |
| CCOc1ccc(Nc2nc(NCc3ccccc3)c3ccccc3n2)cc1 | 88.2 | 170 | 5670 |
| C=CC1CN2CCC1CC2[C@@H](OC(=O)c1ccc(C(C)(C)C)cc1)c1ccnc2ccc(OC)cc12 (stereo not given in full) | 26 | 103 | 72400 |
| CN(C)CCCn1c(N)c(-c2nc3ccccc3[nH]2)c2nc(C#N)c(C#N)nc21 | 463 | 274 | 60200 |
| COc1ccc(OC)c(-c2ccc(O)c(CNCCc3ccccc3)c2)c1 | 657 | 77.1 | > 10000 |
| CC(C)CNc1nc(NCCC2CCCN2C)ncc1C(=O)NCc1ccccc1 (stereo not given) | 775 | > 1250 | > 10000 |
| CCCCCCCC(=O)N(C)CCCNc1ccnc2cc(Cl)ccc12 | 242 | < 5.87 | > 9690 |
| CCOC(=O)c1nnn(-c2nonc2-n2cccc2)c1CN1CCCCC1 | 2430 | 2210 | > 100000 |
| COC(=O)c1ccc(NC(=O)CSc2nc3cc4c(cc3cc2C#N)OCCO4)cc1 | 1610 | 1540 | > 10000 |
| O=C(COc1ccccc1)Nc1nccs1 | > 1250 | 1260 | > 10000 |
| Cc1c(C(=O)N2CCN(c3ccc([N+](=O)[O-])cc3)CC2)sc2ncnc(N(C)c3ccccc3)c12 | 1650 | > 1250 | > 10000 |
| CC[n+]1c(C=C2C=C(C)OC(C)=C2)sc2ccccc21 | 147 | 119 | > 32000 |
| O=C1CSC(=NN=Cc2cccnc2)N1c1ccccc1 | > 12500 | 2490 | > 100000 |
| Cc1cc(C)c(S(=O)(=O)N2CCCC2CNC(=O)c2cccc([N+](=O)[O-])c2)c(C)c1 (stereo not given) | 914 | 1230 | > 100000 |
| CCN(CC)CCCNC(=S)N(Cc1ccc(F)cc1)Cc1cc2cc(C)cc(C)c2[nH]c1=O | 2760 | 1200 | 22500 |
| C(=NNc1nc2ccccc2[nH]1)c1c[nH]c2ccccc12 | 330 | 391 | 19200 |
| CCN(CC)c1ccc(NC(=O)c2cccs2)cc1 | 414 | 770 | > 100000 |
| CCCCN(CC)S(=O)(=O)c1cc(Br)cc2c1N(C(C)=O)CC2 | 1560 | 441 | > 10000 |
| CC(C)c1ccc(/C=C/C(=O)NCc2ccco2)cc1 | 890 | 628 | > 10000 |
| CCN(CC)C(=O)CSc1nnc(-c2ccccn2)n1-c1ccc(OC)cc1 | 1290 | < 5.58 | 3190 |
| CCC(C(=O)NCCCCNc1ccnc2cc(Cl)ccc12)c1ccccc1 (stereo not given) | 288 | 168 | 11500 |
| CCN(CC)c1scc(-c2ccc(Br)cc2)[s+]1 | 349 | 541 | > 10000 |
| O=S(=O)(c1ccccc1)N1CCN(CC2CNCCO2)CC1 (stereo not given) | 767 | 332 | 3220 |
